Measured values taken from the supplement of paper PMC10307832.

What was measured:
Assay in all cases: relative viability (nuclei count vs DMSO), 5 days (fraction); higher = more cells survive
Dinaciclib + Navitoclax = compound: CCc1cnn2c(NCc3ccc[n+]([O-])c3)cc(N3CCCC[C@H]3CCO)nc12 [Dinaciclib] + CC1(C)CCC(c2ccc(Cl)cc2)=C(CN2CCN(c3ccc(C(=O)NS(=O)(=O)c4ccc(N[C@H](CCN5CCOCC5)CSc5ccccc5)c(S(=O)(=O)C(F)(F)F)c4)cc3)CC2)C1 [Navitoclax] (partner 0.5 µM)
Procedure, shortened: (§1)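 Lung cancer cell lines in 1536-well plates were dosed by pin tool the day after seeding, either with one drug alone or with a fixed anchor-drug dose plus five library-drug doses (not always all listed) in √10 steps. After 5 days, cells were fixed and their nuclei stained in one step (final 0.05% Triton X-100, 1% formaldehyde, 1 ug/ml Hoechst), then counted on 4× images. Relative viability is the nuclei count in treated wells divided by that in vehicle wells. Values are medians of duplicate plates.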

Dinaciclib + Pictilisib = compound: CCc1cnn2c(NCc3ccc[n+]([O-])c3)cc(N3CCCC[C@H]3CCO)nc12 [Dinaciclib] + CS(=O)(=O)N1CCN(Cc2cc3nc(-c4cccc5[nH]ncc45)nc(N4CCOCC4)c3s2)CC1 [Pictilisib] (partner 1 µM)
Procedure, shortened: as §1

Dinaciclib + Decitabine = compound: CCc1cnn2c(NCc3ccc[n+]([O-])c3)cc(N3CCCC[C@H]3CCO)nc12 [Dinaciclib] + Nc1ncn([C@H]2C[C@H](O)[C@@H](CO)O2)c(=O)n1 [Decitabine] (partner 2 µM)
Procedure, shortened: as §1

Dinaciclib + OSI-027 = compound: CCc1cnn2c(NCc3ccc[n+]([O-])c3)cc(N3CCCC[C@H]3CCO)nc12 [Dinaciclib] + COc1cccc2cc(-c3nc([C@H]4CC[C@H](C(=O)O)CC4)n4ncnc(N)c34)[nH]c12 [OSI-027] (partner 0.5 µM)
Procedure, shortened: as §1

Dinaciclib = compound: CCc1cnn2c(NCc3ccc[n+]([O-])c3)cc(N3CCCC[C@H]3CCO)nc12 [Dinaciclib]
Procedure, shortened: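 A plate was accepted only when its control CV was below 25% and the cells had doubled at least once. Viability is defined from nuclear counts as treated wells divided by vehicle wells, with the median taken across plates. That median covers lung cancer cell lines grown in 1536-well plates, dosed by pinning at five √10-spaced library-drug concentrations, and counted in MetaXpress from 4× Hoechst images after 5 days.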

Cell Line | relative viability (Dinaciclib + Navitoclax; first compound 0.009487 µM) | relative viability (Dinaciclib + Navitoclax; first compound 0.03 µM) | relative viability (Dinaciclib + Navitoclax; first compound 0.09487 µM) | relative viability (Dinaciclib + Navitoclax; first compound 0.3 µM) | relative viability (Dinaciclib + Pictilisib; first compound 0.009487 µM) | relative viability (Dinaciclib + Pictilisib; first compound 0.03 µM) | relative viability (Dinaciclib + Pictilisib; first compound 0.09487 µM) | relative viability (Dinaciclib + Pictilisib; first compound 0.3 µM) | relative viability (Dinaciclib + Decitabine; first compound 0.009487 µM) | relative viability (Dinaciclib + Decitabine; first compound 0.03 µM) | relative viability (Dinaciclib + Decitabine; first compound 0.09487 µM) | relative viability (Dinaciclib + Decitabine; first compound 0.3 µM) | relative viability (Dinaciclib + OSI-027; first compound 0.009487 µM) | relative viability (Dinaciclib + OSI-027; first compound 0.03 µM) | relative viability (Dinaciclib + OSI-027; first compound 0.09487 µM) | relative viability (Dinaciclib + OSI-027; first compound 0.3 µM) | relative viability (Dinaciclib; 0.009487 µM) | relative viability (Dinaciclib; 0.03 µM) | relative viability (Dinaciclib; 0.09487 µM) | relative viability (Dinaciclib; 0.3 µM)
201T | 1.31 | 1.19 | 0.416 | 0.32 | 0.714 | 0.372 | 0.308 | 0.265 | 0.943 | 0.767 | 0.168 | 0.209 | 0.801 | 0.297 | 0.119 | 0.183 | 1.09 | 0.632 | 0.339 | 0.236
A-427 | 0.94 | 0.434 | 0.089 | 0.0921 | 0.564 | 0.0973 | 0.0666 | 0.065 | 0.508 | 0.153 | 0.119 | 0.116 | 0.385 | 0.143 | 0.0922 | 0.0796 | 0.828 | 0.144 | 0.084 | 0.0857
ABC-1 | – | – | – | – | 0.658 | 0.157 | 0.163 | 0.136 | 0.963 | 0.338 | 0.297 | 0.237 | 0.329 | 0.123 | 0.104 | 0.118 | 0.757 | 0.237 | 0.165 | 0.116
BEN | 0.102 | 0.0524 | 0.0833 | 0.0414 | 0.621 | 0.388 | 0.173 | 0.191 | 0.88 | 0.572 | 0.245 | 0.313 | 0.289 | 0.264 | 0.191 | 0.198 | 1.06 | 0.812 | 0.214 | 0.257
CAL-12T | 0.487 | 0.0619 | 0.0673 | 0.0743 | 0.201 | 0.105 | 0.122 | 0.116 | – | – | – | – | 0.235 | 0.136 | 0.118 | 0.124 | 0.479 | 0.163 | 0.121 | 0.137
COR-L23 | 0.994 | 0.0863 | 0.066 | 0.0652 | 0.414 | 0.0756 | 0.0621 | 0.0547 | 0.388 | 0.114 | 0.0933 | 0.0952 | 0.608 | 0.0953 | 0.0761 | 0.0902 | 0.891 | 0.162 | 0.0991 | 0.103
COR-L 105 | 0.496 | 0.213 | 0.214 | 0.218 | 0.306 | 0.23 | 0.224 | 0.25 | 0.618 | 0.408 | 0.304 | 0.278 | 0.51 | 0.232 | 0.224 | 0.234 | 0.599 | 0.285 | 0.264 | 0.29
ChaGo-K-1 | 0.541 | 0.219 | 0.173 | 0.17 | 0.321 | 0.213 | 0.175 | 0.161 | 0.531 | 0.287 | 0.138 | 0.128 | 0.499 | 0.186 | 0.128 | 0.119 | 0.95 | 0.246 | 0.203 | 0.146
EKVX | 0.738 | 0.298 | 0.0814 | 0.106 | 0.407 | 0.227 | 0.12 | 0.113 | 0.388 | 0.196 | 0.136 | 0.123 | 0.694 | 0.59 | 0.204 | 0.105 | 0.996 | 0.601 | 0.184 | 0.13
EMC-BAC-2 | 1.22 | 0.576 | 0.205 | 0.213 | 0.621 | 0.303 | 0.136 | 0.15 | 0.991 | 0.26 | 0.22 | 0.24 | 0.353 | 0.188 | 0.207 | 0.217 | 0.951 | 0.413 | 0.224 | 0.197
EPLC-272H | 1.05 | 0.576 | 0.411 | 0.0616 | 0.218 | 0.0536 | 0.0465 | 0.046 | 0.36 | 0.088 | 0.0389 | 0.0501 | 0.288 | 0.152 | 0.0567 | 0.0523 | 0.855 | 0.0817 | 0.0396 | 0.0347
H3255 | 0.487 | 0.0787 | 0.0605 | 0.0759 | 0.415 | 0.261 | 0.164 | 0.182 | 0.642 | 0.237 | 0.157 | 0.147 | 0.593 | 0.394 | 0.279 | 0.226 | 0.928 | 0.56 | 0.219 | 0.196
HARA | 1.04 | 0.0747 | 0.0574 | 0.0511 | 0.529 | 0.0709 | 0.0524 | 0.031 | 0.437 | 0.205 | 0.135 | 0.101 | 0.532 | 0.064 | 0.04 | 0.0478 | 0.912 | 0.18 | 0.088 | 0.0759
HCC-15 | 0.587 | 0.244 | 0.0855 | 0.0945 | 0.637 | 0.117 | 0.0949 | 0.11 | 0.521 | 0.139 | 0.13 | 0.129 | 0.596 | 0.113 | 0.0869 | 0.107 | 0.772 | 0.154 | 0.114 | 0.114
HCC-44 | 1.08 | 0.15 | 0.149 | 0.161 | 0.711 | 0.248 | 0.122 | 0.129 | 0.804 | 0.406 | 0.344 | 0.317 | 0.286 | 0.208 | 0.159 | 0.17 | 0.973 | 0.443 | 0.176 | 0.147
HCC-78 | 0.763 | 0.35 | 0.107 | 0.136 | 0.197 | 0.226 | 0.105 | 0.11 | 0.612 | 0.32 | 0.206 | 0.205 | 0.349 | 0.347 | 0.205 | 0.193 | 0.914 | 0.326 | 0.175 | 0.199
HCC-366 | 1.01 | 0.11 | 0.0149 | 0.0168 | 0.196 | 0.0396 | 0.0372 | 0.044 | 0.237 | 0.133 | 0.0321 | 0.0394 | 0.924 | 0.0747 | 0.0323 | 0.0369 | 1.01 | 0.107 | 0.0385 | 0.0363
HCC-827 | 1.02 | 0.699 | 0.127 | 0.108 | 0.998 | 0.446 | 0.242 | 0.223 | 0.351 | 0.131 | 0.12 | 0.137 | 0.887 | 0.565 | 0.129 | 0.116 | 1.1 | 0.85 | 0.188 | 0.168
HOP-62 | 0.967 | 0.126 | 0.0367 | 0.042 | 0.583 | 0.092 | 0.0651 | 0.0405 | 0.204 | 0.21 | 0.0932 | 0.0689 | 0.72 | 0.446 | 0.139 | 0.0825 | 0.957 | 0.474 | 0.0898 | 0.0943
IA-LM | 0.695 | 0.0044 | 0.0033 | 0.0072 | 0.327 | 0.0323 | 0.0279 | 0.0329 | – | – | – | – | – | – | – | – | 0.804 | 0.286 | 0.0334 | 0.0226
LC-2-ad | 0.401 | 0.0677 | 0.067 | 0.0747 | 0.305 | 0.071 | 0.0698 | 0.0506 | 0.745 | 0.541 | 0.158 | 0.151 | 0.58 | 0.251 | 0.247 | 0.227 | 0.917 | 0.18 | 0.145 | 0.129
LCLC-103H | – | – | – | – | 0.572 | 0.463 | 0.147 | 0.143 | 0.754 | 0.648 | 0.297 | 0.242 | 0.451 | 0.483 | 0.111 | 0.109 | 1.03 | 0.855 | 0.204 | 0.146
NCI-H358 | – | – | – | – | 0.272 | 0.185 | 0.174 | 0.176 | 0.157 | 0.0817 | 0.075 | 0.0916 | 0.49 | 0.0844 | 0.0665 | 0.0776 | 0.785 | 0.153 | 0.104 | 0.131
NCI-H522 | – | – | – | – | – | – | – | – | 0.688 | 0.65 | 0.347 | 0.326 | 0.76 | 0.517 | 0.439 | 0.382 | 0.948 | 0.72 | 0.353 | 0.296
NCI-H650 | – | – | – | – | 0.872 | 0.218 | 0.135 | 0.134 | 0.308 | 0.204 | 0.118 | 0.124 | 0.57 | 0.203 | 0.158 | 0.15 | 0.874 | 0.21 | 0.159 | 0.137
NCI-H661 | – | – | – | – | 0.346 | 0.181 | 0.175 | 0.177 | 0.472 | 0.181 | 0.158 | 0.196 | 0.637 | 0.163 | 0.168 | 0.168 | 1.03 | 0.246 | 0.201 | 0.19
NCI-H1703 | 1.19 | 0.117 | 0.0887 | 0.114 | 0.26 | 0.154 | 0.127 | 0.133 | – | – | – | – | – | – | – | – | 1.16 | 0.531 | 0.104 | 0.118
NCI-H2228 | 0.882 | 0.174 | 0.0319 | 0.0438 | 0.484 | 0.0919 | 0.0936 | 0.1 | – | – | – | – | 0.522 | 0.167 | 0.0767 | 0.124 | 1.21 | 0.434 | 0.123 | 0.161
SW 900 | – | – | – | – | – | – | – | – | 0.408 | 0.325 | 0.182 | 0.151 | 0.578 | 0.103 | 0.0689 | 0.098 | 0.809 | 0.286 | 0.119 | 0.133
